Experiments:
Casein kinase II = Casein kinase II (Homo sapiens, UniProt P19784+P67870+P68400); experiment: Inhibition of human CK2; type: protein-complex assay
[1] = Cytotoxicity against human LCLC cells assessed as growth inhibition; type: functional
[2] = target: T1, NUAK family SNF1-like kinase 1 (Homo sapiens, UniProt O60285); experiment: Inhibition of human ARK5
T1 sequence (O60285 whole entry): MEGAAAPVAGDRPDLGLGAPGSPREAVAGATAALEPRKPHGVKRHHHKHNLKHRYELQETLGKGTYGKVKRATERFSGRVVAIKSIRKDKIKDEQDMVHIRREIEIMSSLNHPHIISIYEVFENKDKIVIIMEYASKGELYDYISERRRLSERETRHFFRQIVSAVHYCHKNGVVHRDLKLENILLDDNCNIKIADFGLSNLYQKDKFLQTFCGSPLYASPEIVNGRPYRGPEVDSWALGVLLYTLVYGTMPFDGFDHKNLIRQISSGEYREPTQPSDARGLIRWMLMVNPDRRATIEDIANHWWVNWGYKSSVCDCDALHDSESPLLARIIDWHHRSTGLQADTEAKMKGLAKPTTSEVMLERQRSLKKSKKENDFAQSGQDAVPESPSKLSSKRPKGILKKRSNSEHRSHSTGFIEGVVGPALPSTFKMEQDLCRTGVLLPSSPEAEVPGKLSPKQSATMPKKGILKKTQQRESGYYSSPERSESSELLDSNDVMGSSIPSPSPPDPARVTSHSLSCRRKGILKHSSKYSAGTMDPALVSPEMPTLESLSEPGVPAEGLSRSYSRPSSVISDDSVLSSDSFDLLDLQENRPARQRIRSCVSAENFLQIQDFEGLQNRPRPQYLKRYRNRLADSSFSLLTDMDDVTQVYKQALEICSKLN

MCF7 = experiment: Cytotoxicity against human MCF7 cells assessed as growth inhibition; type: functional
[3] = target: T2, Receptor-type tyrosine-protein kinase FLT3 (Homo sapiens, UniProt P36888); experiment: Inhibition of human FLT3
T2 sequence (P36888 whole entry): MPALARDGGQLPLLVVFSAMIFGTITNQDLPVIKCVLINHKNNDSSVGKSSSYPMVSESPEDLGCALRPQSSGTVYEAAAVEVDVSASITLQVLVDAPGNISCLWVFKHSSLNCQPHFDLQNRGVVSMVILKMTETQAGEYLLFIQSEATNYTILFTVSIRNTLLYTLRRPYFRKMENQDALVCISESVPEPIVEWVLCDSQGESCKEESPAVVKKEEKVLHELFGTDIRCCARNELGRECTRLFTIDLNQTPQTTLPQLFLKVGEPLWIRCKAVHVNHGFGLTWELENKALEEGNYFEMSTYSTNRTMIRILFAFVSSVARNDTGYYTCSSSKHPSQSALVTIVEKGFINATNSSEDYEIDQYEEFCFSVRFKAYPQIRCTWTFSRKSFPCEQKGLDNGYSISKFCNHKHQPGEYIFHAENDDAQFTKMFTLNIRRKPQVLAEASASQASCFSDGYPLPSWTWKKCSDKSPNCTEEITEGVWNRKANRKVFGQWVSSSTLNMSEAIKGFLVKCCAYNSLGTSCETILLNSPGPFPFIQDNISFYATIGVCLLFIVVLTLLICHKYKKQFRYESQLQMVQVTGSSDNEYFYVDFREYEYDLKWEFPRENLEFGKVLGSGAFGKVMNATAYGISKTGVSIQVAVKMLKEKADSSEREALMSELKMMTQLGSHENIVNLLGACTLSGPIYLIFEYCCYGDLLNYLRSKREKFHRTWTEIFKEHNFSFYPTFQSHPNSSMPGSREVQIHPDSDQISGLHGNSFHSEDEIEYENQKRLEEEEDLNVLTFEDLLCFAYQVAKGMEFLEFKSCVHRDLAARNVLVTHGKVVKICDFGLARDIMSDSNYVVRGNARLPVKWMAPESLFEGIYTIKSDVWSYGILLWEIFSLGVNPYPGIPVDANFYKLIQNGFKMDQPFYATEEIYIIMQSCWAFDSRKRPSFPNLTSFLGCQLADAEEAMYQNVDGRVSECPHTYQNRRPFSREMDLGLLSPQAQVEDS

SISO = experiment: Cytotoxicity against human SISO cells assessed as growth inhibition; type: functional
A-427 = experiment: Cytotoxicity against human A427 cells assessed as growth inhibition; type: functional
5637 = experiment: Cytotoxicity against human 5637 cells assessed as growth inhibition; type: functional
[4] = Cytotoxicity against human KYSE-70 cells assessed as growth inhibition; type: functional
MC-38 = experiment: Antitumor activity against mouse C38 cells allografted in B6D2F1 mouse assessed as tumor regression at 25 mg/kg, iv administered on days 10, 17 and 24 measured for 10 weeks relative to control; type: functional

Chain of Casein kinase II (P67870 whole entry): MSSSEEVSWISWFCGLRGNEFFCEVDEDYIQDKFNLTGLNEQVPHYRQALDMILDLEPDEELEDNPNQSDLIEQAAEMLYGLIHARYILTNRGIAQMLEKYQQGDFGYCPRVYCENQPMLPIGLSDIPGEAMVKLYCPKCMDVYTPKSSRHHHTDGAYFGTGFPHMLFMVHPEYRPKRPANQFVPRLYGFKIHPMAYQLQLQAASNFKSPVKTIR
Chain of Casein kinase II (P68400 whole entry): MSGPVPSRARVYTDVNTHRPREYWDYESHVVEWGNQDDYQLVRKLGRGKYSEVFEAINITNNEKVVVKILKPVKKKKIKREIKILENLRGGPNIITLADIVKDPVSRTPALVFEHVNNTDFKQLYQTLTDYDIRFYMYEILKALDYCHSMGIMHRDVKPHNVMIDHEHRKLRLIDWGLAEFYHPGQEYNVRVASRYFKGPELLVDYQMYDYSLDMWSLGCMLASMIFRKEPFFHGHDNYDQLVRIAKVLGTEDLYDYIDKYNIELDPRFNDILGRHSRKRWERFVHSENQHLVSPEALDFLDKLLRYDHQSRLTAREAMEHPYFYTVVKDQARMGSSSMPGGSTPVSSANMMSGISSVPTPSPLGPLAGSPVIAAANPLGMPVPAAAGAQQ
Chain of Casein kinase II (P19784 whole entry): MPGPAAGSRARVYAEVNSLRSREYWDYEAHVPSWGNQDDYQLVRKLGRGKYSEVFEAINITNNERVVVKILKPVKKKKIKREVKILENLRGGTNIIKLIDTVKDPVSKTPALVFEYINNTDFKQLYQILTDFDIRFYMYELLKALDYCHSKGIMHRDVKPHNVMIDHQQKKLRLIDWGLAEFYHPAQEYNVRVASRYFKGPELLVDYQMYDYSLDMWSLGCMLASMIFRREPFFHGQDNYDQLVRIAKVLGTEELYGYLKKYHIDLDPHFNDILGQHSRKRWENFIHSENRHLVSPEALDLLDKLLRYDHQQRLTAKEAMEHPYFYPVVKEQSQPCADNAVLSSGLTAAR

## O=c1ccc(=O)c2c1c1c(=O)c3ccccc3c1n2Cc1ccccc1
Casein kinase II
  IC50: 1490 nM

## CC(C)n1c2c(c3c1-c1ccccc1C3=O)C(=O)CCC2=O
[1]
  GI: 1.3 µM
[2]
  IC50: 570 nM
MCF7
  GI: 1.3 µM
[3]
  IC50: 180 nM
SISO
  GI: 1.3 µM
A-427
  GI: 1.3 µM
5637
  GI: 1.3 µM
[4]
  GI: 1.3 µM

## C#C[C@H](C)O/N=C1/c2cc(OC)c(OC)cc2-c2[nH]c3ccc(OCCN(C)C)cc3c21
MC-38
  Activity: 100%

— ChEMBL document CHEMBL2434927, “Indenoindoles and cyclopentacarbazoles as bioactive compounds: synthesis and biological applications” (Eur J Med Chem, 2013)
